| SMILES | melting point |
| --- | --- |
| CCCCCN[C@H]1c2cc3c(cc2OC(C)(C)[C@@H]1O)c(C)cc(Cl)[n+]3[O-].Cl (relative stereo) | 226 to 230 °C (dec.) |
| Cc1cc(C)c2cc3c(cc2n1)[C@@H](NCCc1ccccc1)[C@H](O)C(C)(C)O3.O=C(O)/C=C\C(=O)O (relative stereo) [Synthesis Example 51, (3R*,4R*)-2,2,7,9-tetramethyl-4-[(2-phenethyl)amino]-3,4-dihydro-2H-pyrano[2,3-g]quinolin-3-ol 1 maleate] | 215 to 216 °C (dec.) |
| Cc1cnc2cc3c(cc2c1C)OC(C)(C)C(O)C3NCCc1ccccc1.O=C(O)/C=C\C(=O)O (racemic) [Synthesis Example 3, (±)-trans-2,2,8,9-Tetramethyl-4-[(2-phenylethyl)amino]-3,4-dihydro-2H-pyrano[2,3-g]quinolin-3-ol 1 maleate] | 199 to 203 °C |
| Cc1cc(Cl)nc2cc3c(cc12)OC(C)(C)[C@@H](O)[C@@H]3NCCc1ccccc1.O=C(O)/C=C\C(=O)O (relative stereo) [Synthesis Example 50, (3S*,4R*)-7-chloro-2,2,9-trimethyl-4-[(2-phenylethyl)amino]-3,4-dihydro-2H-pyrano[2,3-g]quinolin-3-ol 1 maleate] | 240 to 242 °C |
| Cc1cc(C(N)=O)nc2cc3c(cc12)OC(C)(C)[C@H](O)[C@H]3NCCc1ccccc1 (relative stereo) [Synthesis Example 15, (3R*,4S*)-3-hydroxy-2,2,9-trimethyl-4-[(2-phenylethyl)amino]-3,4-dihydro-2H-pyrano[2,3-g]quinoline-7-carboxamide] | 168 to 169 °C |
| Cc1ccc2cc3c(cc2n1)[C@H](NCCc1ccccc1)[C@@H](O)C(C)(C)O3.O=C(O)/C=C\C(=O)O (relative stereo) [Synthesis Example 13, (3R*,4S*)-2,2,7-trimethyl-4-[(2-phenylethyl)amino]-3,4-dihydro-2H-pyrano[2,3-g]quinolin-3-ol 1 maleate] | 214 to 217 °C (dec.) |
| CC1(C)Oc2ccc3nc(Cl)ccc3c2[C@@H](NCCc2ccccc2)[C@@H]1O (racemic) [Synthesis Example 9, (±)-trans-8-Chloro-3,3-dimethyl-1-[(2-phenylethyl)amino]-2,3-dihydro-1H-pyrano[3,2-f]quinolin-2-ol] | 141 to 143 °C |
| CC1(C)Oc2ccc3nc(C(N)=O)ccc3c2[C@@H](NCCc2ccccc2)[C@@H]1O (racemic) [Synthesis Example 11, (±)-trans-2-Hydroxy-3,3-dimethyl-1-[(2-phenylethyl)amino]-2,3-dihydro-1H-pyrano[3,2-f]quinoline-8-carboxamide] | 197 to 199 °C |
| Cc1cc(Cl)nc2cc3c(cc12)OC(C)(C)[C@H](O)[C@H]3NCCC1CCOCC1.Cl (relative stereo) | 318 to 320 °C (dec.) |
| Cc1cc(CN)nc2cc3c(cc12)OC(C)(C)[C@H](O)[C@H]3NCCc1ccccc1.O=C(O)/C=C\C(=O)O (relative stereo) [Synthesis Example 83, (3R*,4S*)-7-aminomethyl-2,2,9-trimethyl-4-[(2-phenylethyl)amino]-3,4-dihydro-2H-pyrano[2,3-g]quinolin-3-ol 2 maleate] | 136 to 140 °C |
| CC1(C)Oc2ccc3ncccc3c2C(NCCc2ccccc2)C1O (stereo not drawn) [Synthesis Example 17, (1R*,2R*)-3,3-dimethyl-1-[(2-phenylethyl)amino]-2,3-dihydro-1H-pyrano[3,2-f]quinolin-2-ol] | 170 to 171 °C |
| Cc1cnc2cc3c(cc2n1)OC(C)(C)[C@H](O)[C@H]3NCCc1ccccc1.O=C(O)/C=C\C(=O)O (relative stereo) [Synthesis Example 68, (3R*,4S*)-2,2,8-trimethyl-4-[(2-phenylethyl)amino]-3,4-dihydro-2H-pyrano[2,3-g]quinoxalin-3-ol 1 maleate] | 189 to 192 °C (dec.) |
